# Results reported in patent publication US20090246145A1, “Imaging Correlates of Neurogenesis With MRI” (priority 2005, published 2009).
# Where two headings read alike, the source gives them in different places.
# Experiments:
# [1] = test system: adult hippocampal neural progenitor cells; settings: in vivo; mediated at least in part by NeuroD (Hao 2004; Hsieh 2004); cited from earlier work
# [2] = in vivo
# Text: Three scout scans are first acquired to position the subsequent T2 weighted images along the standard anatomical orientations in a reproducible manner. T2 weighted axial images are acquired with multislice fast spin echo (FSE) sequence using TR/TEeff=[…]/80 ms, rapid acquisition with relaxation enhancement (RARE) factor=16, FOV=26 mm, acquisition matrix=256×256, slice thickness 0.6 mm, slice gap=0.1 mm and NEX 28. The in-plane resolution is 100 μm. This sequence is repeated 4 times, for a total imaging time of 60 minutes. The first 15 minutes correspond to pre-gadolinium image, after this time period a delay of 1-2 minutes precede the ip gadolinium injection while the mouse is being imaged. The injection lasts 30 seconds. All images are acquired utilizing the same dynamic range, so there is no risk of rescale.
# An intravascular contrast agent is required to generate a CBV map of the brain. Different contrast agents have been used for CBV mapping in rodents. Most studies to date have relied on intravenous injections for contrast delivery. Because IV delivery is often problematic in rodents, associated with frequent morbidity and even occasional mortality, it is not ideally suited for longitudinal studies imaging rodents repeatedly over time. […]
# [3] = gas anesthesia during MRI, cited from earlier work
smiles,measurement,setting,value
"CCCC(CCC)C(=O)O [VPA, 2-propylpentanoic acid]",Induction of adult hippocampal neural progenitor cells to differentiate into neurons,[1],induce adult hippocampal neural progenitor cells to differentiate predominantly into neurons
"CNC(=O)CN(CCN(CCN(CC(=O)[O-])CC(=O)NC)CC(=O)[O-])CC(=O)[O-].[Gd+3] [gadolinium, gadodiamide]","IP dose above which gadolinium has toxic effects (mainly transient unsteady gait, possibly vertigo)",[2],Above 10 mMol
FC(F)OC(Cl)C(F)(F)F (stereo not shown) [isoflurane],Cerebral hemodynamic change produced by anesthetic,[3],none or minimal cerebral hemodynamic changes
same,Cerebral hemodynamic change produced by anesthetic,[3]; listed as Isofluorane,minimal cerebral hemodynamic change
